{"source": "patent US11180523B2", "about": "“Design, synthesis and use of synthetic nucleotides comprising charge mass tags” (QuantuMDx Group Limited, priority 2016, dated 2021)", "key": {"[1]": {"assay": "Photocleavage by irradiation with a mercury lamp, followed by LCMS", "type": "physicochemical", "settings": "methanol and water, approximately 250 nm", "method": "For illustrative purpose, initial testing of 3-(hydroxymethyl)naphthalen-2-ol derivative was carried out. The molecule was dissolved in a mixture of methanol and water, and was then irradiated for 90 min with light from a mercury lamp, which emits light with a wavelength of approximately 250 nm. […] After a further 90 min, there was approximately 20% starting material remaining.\nIn the experiments illustrated in FIG. 2, the molecule was dissolved in a mixture of methanol and water, and was then irradiated for 90 min with light from a mercury lamp, which emits light with a wavelength of approximately 250 nm. […] After a further 90 min, there was approximately 20% starting material remaining. […] The peak at 5 mins may be due to the diol being released."}, "DNA polymerase [2]": {"test_system": "DNA polymerase", "assay": "Real-time primer extension analysis (Rotorgene Q, SYBR Safe) with melt analysis", "type": "biochemical", "settings": "single SC-TTP incorporation, compared with standard dNTPs; FIG. 3A", "text": "As specified the linker chain can play an important role, at least in some embodiments, in enabling the nucleotide to remain a polymerase substrate, as such any modified nucleotides have to be shown to be biologically active. In order to exemplify this and as an example of certain embodiments, a polymerase reaction mix may be used for real-time primer extension analysis with Rotor Template, which requires the incorporation of a single SC-TTP nucleotide followed by a sequence of 44 dCTP, dGTP, dATP nucleotides.\nPrimer extension reactions were monitored using the Rotorgene Q Real-time thermocycler, this allows primer extension to be monitored fluorescently using a dsDNA intercalator (SYBR Safe) with secondary melt analysis to provide further information on product composition. This method can be used with an oligonucleotide primer/template pair designed to allow complete extension of the primer with the incorporation of a single SC-TTP nucleotide. Initially, the experiment was be conducted with a 40° C. incubation and then repeated with a 65° C. incubation (optimum synthesis temperature for most commercial DNA Polymerases). Control reactions with standard dNTPs (positive control) and no dNTPs (negative control) were included, alongside a control(s) for mis-incorporation."}, "DNA polymerase [3]": {"test_system": "DNA polymerase", "assay": "Primer extension reaction analysed by PAGE gel", "settings": "incubated at 40° C.; compared with the positive control reaction", "procedure": "Competitor oligos, complementary to the templates were also designed to aid gel analysis of a single stranded product. Primer extension reactions were conducted using the following reaction mix:\nFollowing incubated at 40° C. in a hot block reactions were terminated by the addition of a ‘stop buffer’ containing chelators to inhibit polymerase activity in addition to formamide and competitor oligo to encourage denaturation of the double stranded DNA duplex for electrophoresis."}, "DNA polymerase [4]": {"test_system": "DNA polymerase", "settings": "single base incorporation; overnight, ambient temperature; FIG. 4", "procedure": "Sequencing reactions performed on bulk Si/SiO2 surfaces using both 3′ and 5′ surface tethered 30mer DNA, immobilised onto APDMES/PDC modified Si/SiO2 surface in the typical 4×4 array format. Here, Cy3 labelled dCTP was selectively incorporated to a hybridised primer using the covalently bound 30mer probe as a template. The reaction mix was spread over the silicon surface and incubated overnight in a dark humid chamber at ambient temperature. The silicon was then rinsed in 1× Thermopol buffer and dried using a nitrogen line. Fluorescence was visualised using an Olympus BX60 and imaged using Axio vision camera and Axiovision 3.1 software.\nIt should be noted that each spot would contain a number of DNA strands where the primer extension has taken place and therefore the florescence observed is due to several Cy3 dCTP's not just one base."}}}
{"smiles": "COC(COCc1ccccc1)NC(=O)OCc1cc2ccccc2cc1O", "note": "(centres unmarked) [(3-Hydroxynaphthalen-2-yl)methyl (2-(benzyloxy)-1-methoxyethyl)carbamate]", "values": [{"measurement": "starting material remaining (LCMS)", "setting": "[1]; after a further 90 min irradiation", "value": "approximately 20%"}, {"measurement": "consumption of the starting material (LCMS)", "setting": "[1]; irradiated for 90 min", "value": 50, "unit": "%"}]}
{"smiles": "[N-]=[N+]=NC(COc1cccc(C(=O)NCCNC(=O)c2cc(C(=O)O)cc(C(=O)O)c2)c1)OCCOCC(=O)NCC#Cc1cn([C@H]2C[C@H](O)[C@@H](COP(=O)(O)OP(=O)(O)OP(=O)(O)O)O2)c(=O)[nH]c1=O", "note": "(some centres unmarked) [SC-TTP, Penta-Triethylammonium Cleavable SCTTP]", "values": [{"measurement": "maximum fluorescence intensity associated with incorporation (primer extension)", "setting": "DNA polymerase [2]", "value": "slightly reduced"}, {"measurement": "band shift on gel after primer extension", "setting": "DNA polymerase [3]", "value": "larger shift"}]}
{"smiles": "CCN1/C(=C/C=C/C2=[N+](CCCCCC(=O)NCC#Cc3cn(C4CC(O)C(COP(=O)([O-])OP(=O)([O-])OP(=O)([O-])[O-])O4)c(=O)nc3N)c3cc(S(=O)(=O)O)ccc3C2(C)C)C(C)(C)c2ccc(S(=O)(=O)[O-])cc21.[Li+].[Li+].[Li+].[Li+]", "note": "(centres unmarked) [Cy3 labelled dCTP]", "values": [{"measurement": "fluorescence of printed array post-sequencing and wash steps", "setting": "DNA polymerase [4]", "value": "very weak fluorescence"}]}
